Measured values reported in the NIST ThermoML archive (doi:10.1021/acs.jced.7b00841).

Conditions: for mass density: Liquid, Vibrating tube method; for specific volume: Gas, isochoric method

FC(F)(F)/C=C/Cl [(E)-1-chloro-3,3,3-trifluoroprop-1-ene]
Conditions	mass density [kg/m3]	specific volume [m3/kg]
283.14 K, 29999 kPa	1358.6	–
283.15 K, 133 kPa	1297.8	–
283.15 K, 500 kPa	1298.7	–
283.15 K, 5000 kPa	1309.8	–
283.15 K, 10000 kPa	1321	–
283.15 K, 15000 kPa	1331.4	–
283.15 K, 20000 kPa	1341.1	–
283.15 K, 35000 kPa	1366.8	–
283.16 K, 1000 kPa	1300	–
283.16 K, 2500 kPa	1303.7	–
283.16 K, 25000 kPa	1350.1	–
293.14 K, 499 kPa	1275.3	–
293.14 K, 1000 kPa	1276.7	–
293.14 K, 2500 kPa	1280.9	–
293.14 K, 5000 kPa	1287.6	–
293.14 K, 15000 kPa	1311.3	–
293.14 K, 20000 kPa	1321.7	–
293.14 K, 35000 kPa	1349.2	–
293.15 K, 151 kPa	1274.3	–
293.15 K, 9999 kPa	1299.9	–
293.15 K, 25000 kPa	1331.4	–
293.16 K, 30000 kPa	1340.6	–
303.15 K, 250 kPa	1250.3	–
303.15 K, 501 kPa	1251.2	–
303.15 K, 1001 kPa	1252.7	–
303.15 K, 2499 kPa	1257.4	–
303.15 K, 5000 kPa	1264.8	–
303.15 K, 35000 kPa	1331.1	–
303.16 K, 10001 kPa	1278.4	–
303.16 K, 15003 kPa	1290.7	–
303.16 K, 20002 kPa	1301.9	–
303.16 K, 25001 kPa	1312.3	–
303.16 K, 30000 kPa	1322	–
308.15 K, 167 kPa	–	0.11
313.14 K, 35000 kPa	1313.5	–
313.15 K, 170 kPa	–	0.1101
313.15 K, 351 kPa	1225.4	–
313.15 K, 501 kPa	1226	–
313.15 K, 1000 kPa	1227.8	–
313.15 K, 2500 kPa	1233.1	–
313.15 K, 5000 kPa	1241.3	–
313.15 K, 10000 kPa	1256.4	–
313.15 K, 15000 kPa	1269.9	–
313.15 K, 19999 kPa	1282.1	–
313.15 K, 25000 kPa	1293.4	–
313.15 K, 30000 kPa	1303.8	–
318.15 K, 174 kPa	–	0.1101
323.15 K, 177 kPa	–	0.1101
323.15 K, 274 kPa	–	0.0684
323.15 K, 500 kPa	1199.9	–
323.15 K, 1000 kPa	1202	–
323.15 K, 2500 kPa	1208	–
323.15 K, 5000 kPa	1217.4	–
323.15 K, 10000 kPa	1234.3	–
323.15 K, 15000 kPa	1249.2	–
323.15 K, 19999 kPa	1262.7	–
323.15 K, 24999 kPa	1274.9	–
323.15 K, 30000 kPa	1286.3	–
323.15 K, 35000 kPa	1296.8	–
328.15 K, 180 kPa	–	0.1101
328.15 K, 280 kPa	–	0.0684
333.14 K, 2500 kPa	1182	–
333.14 K, 20000 kPa	1242.9	–
333.14 K, 25003 kPa	1256.2	–
333.14 K, 30002 kPa	1268.3	–
333.14 K, 35000 kPa	1279.5	–
333.15 K, 183 kPa	–	0.1101
333.15 K, 285 kPa	–	0.0684
333.15 K, 372 kPa	–	0.0508
333.15 K, 500 kPa	1172.6	–
333.15 K, 1000 kPa	1175.1	–
333.15 K, 5000 kPa	1192.7	–
333.15 K, 10000 kPa	1211.7	–
333.15 K, 15001 kPa	1228.2	–
338.15 K, 186 kPa	–	0.1102
338.15 K, 290 kPa	–	0.0685
338.15 K, 380 kPa	–	0.0509
338.15 K, 415 kPa	–	0.0461
343.15 K, 189 kPa	–	0.1102
343.15 K, 296 kPa	–	0.0685
343.15 K, 387 kPa	–	0.0509
343.15 K, 423 kPa	–	0.0461
343.15 K, 458 kPa	–	0.0419
343.15 K, 700 kPa	1145	–
343.15 K, 1000 kPa	1146.6	–
343.15 K, 2500 kPa	1154.6	–
343.15 K, 5000 kPa	1166.8	–
343.15 K, 10000 kPa	1188.1	–
343.15 K, 15000 kPa	1206.2	–
343.15 K, 20003 kPa	1222.1	–
343.15 K, 25000 kPa	1236.4	–
343.15 K, 30001 kPa	1249.4	–
343.15 K, 35002 kPa	1261.5	–
348.15 K, 192 kPa	–	0.1102
348.15 K, 301 kPa	–	0.0685
348.15 K, 394 kPa	–	0.0509
348.15 K, 431 kPa	–	0.0462
348.15 K, 468 kPa	–	0.0419
348.15 K, 550 kPa	–	0.0349
353.15 K, 195 kPa	–	0.1102
353.15 K, 306 kPa	–	0.0685
353.15 K, 401 kPa	–	0.0509
353.15 K, 439 kPa	–	0.0462
353.15 K, 477 kPa	–	0.042
353.15 K, 562 kPa	–	0.0349
353.15 K, 639 kPa	–	0.0297
353.15 K, 801 kPa	1114.4	–
353.15 K, 1000 kPa	1116.5	–
353.15 K, 2500 kPa	1125.4	–
353.15 K, 5000 kPa	1139.8	–
353.15 K, 10000 kPa	1163.9	–
353.15 K, 15000 kPa	1184.3	–
353.15 K, 20000 kPa	1201.7	–
353.15 K, 25000 kPa	1217.2	–
353.15 K, 30000 kPa	1231.2	–
353.15 K, 34999 kPa	1243.9	–
358.15 K, 198 kPa	–	0.1103
358.15 K, 311 kPa	–	0.0685
358.15 K, 409 kPa	–	0.0509
358.15 K, 447 kPa	–	0.0462
358.15 K, 486 kPa	–	0.042
358.15 K, 573 kPa	–	0.0349
358.15 K, 654 kPa	–	0.0297
363.14 K, 20001 kPa	1180.8	–
363.14 K, 35000 kPa	1226.2	–
363.15 K, 202 kPa	–	0.1103
363.15 K, 316 kPa	–	0.0685
363.15 K, 416 kPa	–	0.0509
363.15 K, 455 kPa	–	0.0462
363.15 K, 494 kPa	–	0.042
363.15 K, 584 kPa	–	0.0349
363.15 K, 667 kPa	–	0.0297
363.15 K, 1200 kPa	1085.8	–
363.15 K, 2500 kPa	1095.5	–
363.15 K, 5000 kPa	1112.1	–
363.15 K, 10000 kPa	1139.5	–
363.15 K, 15001 kPa	1161.9	–
363.15 K, 25001 kPa	1197.5	–
363.15 K, 30000 kPa	1212.5	–
368.15 K, 205 kPa	–	0.1103
368.15 K, 321 kPa	–	0.0685
368.15 K, 423 kPa	–	0.0509
368.15 K, 463 kPa	–	0.0462
368.15 K, 503 kPa	–	0.042
368.15 K, 594 kPa	–	0.0349
368.15 K, 680 kPa	–	0.0298
373.15 K, 208 kPa	–	0.1103
373.15 K, 326 kPa	–	0.0686
373.15 K, 430 kPa	–	0.0509
373.15 K, 470 kPa	–	0.0462
373.15 K, 512 kPa	–	0.042
373.15 K, 605 kPa	–	0.0349
373.15 K, 693 kPa	–	0.0298
